ChEMBL document CHEMBL5608216, “Discovery of a novel Xanthone derivative P24 for anti-AD via targeting sTGFBR3” (Eur J Med Chem, 2024)
The source made the active and inactive calls. The calls are words filed in the database; no cut-off is given here.

How the values were obtained:
[1] = Cytotoxicity against LPS-induced mouse BV-2 cells assessed as survival rate at 10 uM measured after 24 hrs by MTT assay relative to control; type: toxicity, cell-based; conditions: LPS-induced BV-2 cells, read-out: Survival
BV-2 [2] = test: Antiinflammatory activity in LPS-induced mouse BV-2 cells assessed as inhibition of NO production incubated for 24 hrs by Griess reagent based analysis; type: functional, cell-based; conditions: BV-2, 24 h
[3] = Permeability of compound measured after 18 hrs by UV spectrophotometer based PAMPA; type: ADME
[4] = molecular target: T1, Transforming growth factor beta receptor type 3 (Mus musculus) (UniProt O88393); test: Binding affinity to sTGFBR3 in APP/PS1/tau mouse brain extract-induced mouse BV-2 cells at 37 to 77 degreeC measured after 3 hrs by CETSA; type: cell-based
T1 sequence (whole entry): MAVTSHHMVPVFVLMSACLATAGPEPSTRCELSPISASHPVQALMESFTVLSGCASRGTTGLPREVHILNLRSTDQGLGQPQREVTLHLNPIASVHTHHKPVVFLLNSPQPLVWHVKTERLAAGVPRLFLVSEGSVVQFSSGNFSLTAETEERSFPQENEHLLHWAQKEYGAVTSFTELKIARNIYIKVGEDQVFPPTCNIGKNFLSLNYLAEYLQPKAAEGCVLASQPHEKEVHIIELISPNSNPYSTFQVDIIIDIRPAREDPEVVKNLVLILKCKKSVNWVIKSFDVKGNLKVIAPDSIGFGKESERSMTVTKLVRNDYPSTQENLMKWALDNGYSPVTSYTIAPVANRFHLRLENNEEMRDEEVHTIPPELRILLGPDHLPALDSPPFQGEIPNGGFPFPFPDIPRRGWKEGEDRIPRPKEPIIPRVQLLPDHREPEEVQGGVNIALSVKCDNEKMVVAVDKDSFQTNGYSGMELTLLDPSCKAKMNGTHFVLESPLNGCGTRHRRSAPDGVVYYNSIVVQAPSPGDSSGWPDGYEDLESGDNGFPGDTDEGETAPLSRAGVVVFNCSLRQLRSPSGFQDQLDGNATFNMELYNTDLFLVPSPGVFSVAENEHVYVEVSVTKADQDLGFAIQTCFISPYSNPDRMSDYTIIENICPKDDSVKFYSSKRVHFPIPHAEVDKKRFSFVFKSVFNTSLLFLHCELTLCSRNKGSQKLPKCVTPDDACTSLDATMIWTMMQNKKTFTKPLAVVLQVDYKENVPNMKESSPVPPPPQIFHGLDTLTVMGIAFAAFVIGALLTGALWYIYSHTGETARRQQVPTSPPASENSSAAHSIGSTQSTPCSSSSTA

[5] = Toxicity in C57BL/6 mouse assessed as mortality at 2000 mg/kg, po measured after 3 to 24 hrs; type: organism-based; conditions: in vivo, time 3-24 hrs
[6] = MRT (0 to infinity) in Sprague-Dawley rat at 50 mg/kg, po administered as single dose and measured upto 48 hrs; type: ADME, organism-based; conditions: in vivo
[7] = AUC (0 to t) in Sprague-Dawley rat at 50 mg/kg, po administered as single dose and measured upto 48 hrs; type: ADME, organism-based; conditions: in vivo
BV-2 [8] = test: Enhancement of amyloid beta phagocytosis in APP/PS1/tau triple transgenic mouse brain extract-induced mouse BV-2 cells assessed as increase in fluorescence intensity pretreated for 1 hr followed by brain extract treatment and measured after 24 hrs by Thioflavin T staining based assay; type: functional, cell-based; conditions: dose 1.25-10 µM, time 25.0 hrs
BV-2 [9] = test: Inhibition of NF-kappaB activation in APP/PS1/tau triple transgenic mouse brain extract-induced mouse BV-2 cells assessed as inhibition of phosphorylated p65 protein expression by immunoblot analysis; type: cell-based; conditions: dose 1.25-10 µM
BV-2 [10] = test: Inhibition of NF-kappaB activation in APP/PS1/tau triple transgenic mouse brain extract-induced mouse BV-2 cells assessed as inhibition of phosphorylated IKBalpha protein expression by immunoblot analysis; type: cell-based; conditions: dose 1.25-10 µM
BV-2 [11] = test: Antiinflammatory activity in APP/PS1/tau triple transgenic mouse brain extract-induced mouse BV-2 cells assessed as increase in IL-4 expression by immunoblot analysis; type: functional, cell-based; conditions: dose 1.25-10 µM
BV-2 [12] = test: Antiinflammatory activity in APP/PS1/tau triple transgenic mouse brain extract-induced mouse BV-2 cells assessed as reduction in CD86 expression by immunoblot analysis; type: functional, cell-based; conditions: dose 1.25-10 µM
[13] = Cmax in Sprague-Dawley rat at 50 mg/kg, po administered as single dose and measured upto 48 hrs; type: ADME, organism-based; conditions: in vivo
BV-2 [14] = test: Antiinflammatory activity in APP/PS1/tau triple transgenic mouse brain extract-induced mouse BV-2 cells assessed as increase in CD206 expression by immunoblot analysis; type: functional, cell-based; conditions: dose 1.25-10 µM
BV-2 [15] = test: Antiinflammatory activity in APP/PS1/tau triple transgenic mouse brain extract-induced mouse BV-2 cells assessed as reduction in IL-1beta expression by immunoblot analysis; type: functional, cell-based; conditions: dose 1.25-10 µM
BV-2 [16] = test: Activation of TGF-beta pathway in APP/PS1/tau triple transgenic mouse brain extract-induced mouse BV-2 cells assessed as increase in phosphorylated SMAD2/3 protein expression by immunoblot analysis; type: cell-based; conditions: filed as activator, dose 1.25-10 µM
BV-2 [17] = test: Inhibition of NF-kappaB activation in APP/PS1/tau triple transgenic mouse brain extract-induced mouse BV-2 cells assessed as reduction in IKK complex formation by immunoblot analysis; type: cell-based; conditions: dose 1.25-10 µM
BV-2 [18] = test: Antiinflammatory activity in APP/PS1/tau triple transgenic mouse brain extract-induced mouse BV-2 cells assessed as reduction in TNFalpha expression by immunoblot analysis; type: functional, cell-based; conditions: dose 1.25-10 µM
[19] = Elimination half life in Sprague-Dawley rat at 50 mg/kg, po administered as single dose and measured upto 48 hrs; type: ADME, organism-based; conditions: in vivo, read-out: beta t1/2 (converted)
BV-2 [20] = test: Activation of TGF-beta pathway in APP/PS1/tau mouse brain extract-induced mouse BV-2 cells assessed as increase in phosphorylated SMAD2/3 protein level by immunoblot analysis; type: cell-based; conditions: filed as activator
BV-2 [21] = test: Antiinflammatory activity in APP/PS1/tau triple transgenic mouse brain extract-induced mouse BV-2 cells assessed as increase in IL-10 expression by immunoblot analysis; type: functional, cell-based; conditions: dose 1.25-10 µM
[22] = Tmax in Sprague-Dawley rat at 50 mg/kg, po administered as single dose and measured upto 48 hrs; type: ADME, organism-based; conditions: in vivo

Compound | viability at 24 h, 10 µM [1] [%] | IC50 (BV-2 [2]) [µM] | other results
O=C(COc1ccc2c(=O)c3ccccc3oc2c1)NCCc1ccc(Cl)cc1 | 38.5 | 1.53 | 
O=c1c2ccccc2oc2ccccc12 [XANTHONE] | 95.4 | 21.2 | 
CCn1cc(C(=O)O)c(=O)c2cc(F)c(N3CCNCC3)nc21 [ENOXACIN] |  |  | permeability [3]: 43.26%
O=C(COc1ccc2c(=O)c3ccccc3oc2c1)Nc1ccccn1 | 87.4 | > 30 | 
O=C(COc1ccc2c(=O)c3ccccc3oc2c1)NC1CCOCC1 | 80.6 | 3.9 | 
O=C(COc1ccc2c(=O)c3ccccc3oc2c1)NCC1CCOCC1 | 105 | 0.52 | Activity ([4]; filed as antagonist): Active; Activity [5]: Non-Toxic; MRT inf [6]: 14.5 h; permeability [3]: 79.33%; AUCt [7]: 4.738426 µg·h/mL; Activity (BV-2 [8]): Dose-Dependent Effect; inhibition (BV-2 [9]): Dose-Dependent Effect; inhibition (BV-2 [10]): Dose-Dependent Effect; Activity (BV-2 [11]): Dose-Dependent Effect; Activity (BV-2 [12]): Dose-Dependent Effect; Cmax [13]: 0.304 µg/mL; Activity (BV-2 [14]): Dose-Dependent Effect; Activity (BV-2 [15]): Dose-Dependent Effect; Activity (BV-2 [16]): Dose-Dependent Effect; inhibition (BV-2 [17]): Dose-Dependent Effect; Activity (BV-2 [18]): Dose-Dependent Effect; half-life [19]: 10.3 h; Activity (BV-2 [20]): Active; Activity (BV-2 [21]): Dose-Dependent Effect; Tmax [22]: 12 h
O=C(COc1ccc2c(=O)c3ccccc3oc2c1)NCc1cccnc1 | 75.4 | 16 | 
CCC(NC(=O)COc1ccc2c(=O)c3ccccc3oc2c1)c1ccccn1 (stereo not given) | 98.5 | 5.43 | 
O=C(COc1ccc2c(=O)c3ccccc3oc2c1)Nc1ccncc1 | 108 | 2.79 | 
C[C@]12CCC(=O)C=C1CC[C@@H]1[C@@H]2CC[C@]2(C)C(=O)CC[C@@H]12 [ANDROSTENEDIONE] |  |  | permeability [3]: 87.28%
O=C(COc1ccc2c(=O)c3ccccc3oc2c1)NCc1ccncc1 | 102 | 6.38 | 
O=C(COc1ccc2c(=O)c3ccccc3oc2c1)NCc1ccccn1 | 69.1 | 2.43 | 
O=C(COc1ccc2c(=O)c3ccccc3oc2c1)NCc1ccc(Cl)c(Cl)c1 | 54.6 | 2.89 | 
O=C(COc1ccc2c(=O)c3ccccc3oc2c1)N1CCNCC1 | 101 | 2.15 | Activity [4]: inactive; Activity (BV-2 [20]): Active
O=C(COc1ccc2c(=O)c3ccccc3oc2c1)NCc1ccc(Cl)cc1 | 40.4 | 1.23 | 
O=C(COc1ccc2c(=O)c3ccccc3oc2c1)NCCc1ccc(Cl)c(Cl)c1 | 41.1 | 3.28 | 
CN1CCN(c2ccc(NC(=O)COc3ccc4c(=O)c5ccccc5oc4c3)nc2)CC1 | 86 | 1.19 | 
COc1ccc(CCNC(=O)COc2ccc3c(=O)c4ccccc4oc3c2)cc1 | 54.4 | 0.86 | 
O=C(COc1ccc2c(=O)c3ccccc3oc2c1)NCc1cccc(F)c1 | 97.2 | > 30 | 
O=C(COc1ccc2c(=O)c3ccccc3oc2c1)N(Cc1ccccc1)Cc1ccccc1 | 99.7 | 6.38 | 
Cc1ccc(CCNC(=O)COc2ccc3c(=O)c4ccccc4oc3c2)cc1 | 47.9 | 3.42 | 
O=C(COc1ccc2c(=O)c3ccccc3oc2c1)NCc1ccc(F)cc1 | 82.8 | 2.02 | 
O=C(COc1ccc2c(=O)c3ccccc3oc2c1)NC[C@@H](O)c1ccccc1 | 100 | 12.5 | 
O=C(COc1ccc2c(=O)c3ccccc3oc2c1)NCc1ccccc1F | 84.6 | 1.72 | 
CN1CCN(C(=O)COc2ccc3c(=O)c4ccccc4oc3c2)CC1 | 91.6 | 2.25 | 
O=C(COc1ccc2c(=O)c3ccccc3oc2c1)Nc1cccnc1 | 91.9 | 1.92 | 
O=C(COc1ccc2c(=O)c3ccccc3oc2c1)NCc1ccccc1 | 79 | 2.41 | 
O=C(COc1ccc2c(=O)c3ccccc3oc2c1)NCCc1ccccc1 | 96.4 | 2.57 | 
O=C(COc1ccc2c(=O)c3ccccc3oc2c1)N1CCOCC1 | 108 | 2.49 | Activity ([4]; filed as antagonist): Active; Activity (BV-2 [20]): Active
